Read-outs that look alike come from different tables or passages of the source.
Experiments:
K562 = test: IC50 proliferation assay (Alamar Blue, 72 h); type: cell-based
Description: (§1) IC50 proliferation assay—Cell lines and primary cells were seeded into 96-well plates the afternoon prior to treatment. Approximately 18 hours later, compounds were semi-serially diluted in dimethyl sulfoxide (DMSO) and then growth medium, and added to cells. Plates were incubated for 72 hours prior to addition of Alamar Blue (Life Technologies, Carlsbad, CA). Plates were read after 4 additional hours of incubation at 37° C. using a Bio-Tek Synergy HT plate reader (Bio-Tek, Winooski, VT). Data was analyzed and graphed using GraphPad Prism Software (Graphpad, La Jolla. CA).
(§2) IC50 (proliferation inhibition) against leukemia cell lines MV4-11 and K562. […] MiaPaca-2 (Pancreatic cell line), HLY-1 (Lymphoma cell line), MV4-11 (AML, cell line) and K562 (CML cell line).

MV4-11 [1] = test: IC50 proliferation assay (Alamar Blue, 72 h); type: cell-based; conditions: read-out: IC50 (proliferation inhibition) Cell line - MV4-11
Description: as §1, §2

MV4-11 [2] = test: IC50 determination (proliferation assay, CellTiter-Blue); type: cell-based
Description: (§3) Cell lines were seeded into 96-well plates the afternoon prior to treatment. Approximately 18 hours later, compounds were diluted in dimethyl sulfoxide (DMSO) and added to cells. Plates were incubated for 72 hours and cells viability determined with CellTiter-Blue Cell Viability Assay (Promega, Madison, WI). Plates were read after 4 additional hours of incubation at 37° C. using plate reader (Bio-Tek, Winooski. VT). Data was analyzed and graphed using GraphPad Prism Software (Graphpad. La Jolla, CA). […]

MOLM14 = test: as above; type: cell-based
Description: as §3

c-kit = c-kit (Homo sapiens (Human), UniProt P10721); test: Reaction Biology HotSpot kinase assay; type: biochemical; conditions: 500 nM compound, 100 μM radiolabeled ATP
Description: (§4) The Reaction Biology Corporation (www.reactionbiology.com, Malvern, PA) HotSpot assay platform was used to measure kinase/inhibitor interactions exactly as previously described. Kinase and substrate were mixed in a buffer containing 20 mM HEPES pH 7.5, 10 mM MgCl2, 1 mM EGTA, 0.02% Brij35, 0.02 mg/mL BSA, 0.1 mM Na3VO4, 2 mM DTT and 1% DMSO. Single-dose of compounds (500 nM) were then added to each reaction mixture. After 20-minute incubation. ATP (Sigma) and [γ-^33P] ATP (Perkin Elmer) were added at a final total concentration of 100 μM for addition 2 hours at room temperature, followed by spotting onto P81 ion exchange cellulose chromatography paper (Whatman, Inc.). […] Percent remaining kinase activity of a vehicle (DMSO) containing kinase reaction was calculated for each kinase/inhibitor pair using Prism 5 (GraphPad).
as §4, with “1” for “DTT”, “incubation,” for “incubation.”

FLT3 = FLT3 (Homo sapiens (Human), UniProt P36888); test: Reaction Biology HotSpot kinase assay; type: biochemical; conditions: 500 nM compound; for inhibition at 0.5 µM: read-out: % inhibition of FLT3 activity
Description: as §4
as §4, with “1” for “DTT”, “incubation,” for “incubation.”

FGFR1 = FGFR1 (Homo sapiens (Human), UniProt P11362); test: Reaction Biology HotSpot kinase assay; type: biochemical; conditions: 500 nM compound; read-out: Percentage kinase inhibition FGFR1
Description: as §4
as §4, with “1” for “DTT”, “incubation,” for “incubation.”

c-Src = c-Src (Homo sapiens (Human), UniProt P12931); test: Reaction Biology HotSpot kinase assay; type: biochemical; conditions: 500 nM compound; read-out: Percentage kinase inhibition c-Src
Description: as §4
as §4, with “1” for “DTT”, “incubation,” for “incubation.”

MV4-11 [3] = test: Proliferation inhibition screen at 100 nM; type: cell-based; conditions: 100 nM compound, FIG. 10
Description: (§5) To determine inhibition at 100 nM or 1 mM, 96-well plates were seeded the afternoon before treatment. Plates were then treated with compound diluted in dimethyl sulfoxide (DMSO) as well as a DMSO control the following day for 72 hours. After this time the plates were then treated with 10 μL of CellTiter-Blue Cell Viability Assay (Promega, Madison, WI) for 4 hours. Then the plates were read on a plate reader (Bio-Tek, Winooski, VT). Data was analyzed on Excel as a percent of the DMSO vehicle.
From these cell proliferation studies, MV4-11 appeared to be more sensitive to the compounds than the other cell lines (Table 6A). […] To identify group of compounds potently inhibiting cancer cell proliferation, a lower concentration of compounds (100 nM) were used to screen against MV4-11 (FIG. 10). From these experiments, potent amide compounds A7, A10, A15, A16, A18, A20, B15 and D30 (as indicated by ***, FIG. 10) were selected. […] Typically amides that contain basic amines are included in compound libraries to improve aqueous solubility but it appears that the presence of a basic amine in the side chain of the compounds also facilitated the actual inhibition of MV4-11 proliferation.

FLT3 (ITD) = FLT3 (ITD) (Homo sapiens, UniProt P36888, ITD); test: DiscoverX Kd Elect binding; conditions: read-out: Kd FLT3 (ITD)
Description: Although the current drugs on the market or in clinical trials are relatively successful in killing the AML leukemia cells, they currently are unable to deal with secondary mutations that occur after TKI treatment, such as FLT3 ([…]).

NCI H1703 (NSCLC) = test: Activity against lung cancer cell line; type: cell-based; conditions: Homo sapiens, NCI-H1703
FLT3 (ITD, F691L) = FLT3 (ITD, F691L) (Homo sapiens, UniProt P36888, F691L/ITD); test: DiscoverX Kd Elect binding; conditions: read-out: Kd FLT3 (ITD, F691L)
MV-4-11 = test: Proliferation inhibition at single concentration (CellTiter-Blue); type: cell-based; conditions: 1 μM compound; for inhibition at 1 µM: Homo sapiens, MV4-11, read-out: Percent inhibition of proliferation MV-4-11
HCT116 = test: as above; type: cell-based; conditions: 1 μM compound; for inhibition at 1 µM: Homo sapiens, HCT-116, read-out: Percent inhibition of proliferation HCT116
RET = RET (Homo sapiens (Human), UniProt P07949); test: Reaction Biology HotSpot kinase assay; type: biochemical; conditions: 500 nM compound; read-out: Percentage kinase inhibition RET
Description: as §4
as §4, with “1” for “DTT”, “incubation,” for “incubation.”

TRKC = TRKC (Homo sapiens (Human), UniProt Q16288); test: Reaction Biology HotSpot kinase assay; type: biochemical; conditions: 500 nM compound, 100 μM radiolabeled ATP
Description: as §4
as §4, with “1” for “DTT”, “incubation,” for “incubation.”

HeLa = test: Proliferation inhibition at single concentration (CellTiter-Blue); type: cell-based; conditions: 1 μM compound; for inhibition at 1 µM: Homo sapiens, HeLa, read-out: Percent inhibition of proliferation HeLa
Description: as §5, with “Plates” for “To determine inhibition at 100 nM or 1 mM, 96-well plates were seeded the afternoon before treatment. Plates”
(§6) Antiproliferative activities against AML cell line, MV4-11 (a FLT3-driven cell line) and three other solid tumors (MCF7, breast, HCT116, colon and HeLa) have been investigated (Tables 6A and 6B and FIG. 10).

MCF-7 = test: as above; type: cell-based; conditions: 1 μM compound; for inhibition at 1 µM: Homo sapiens, MCF7, read-out: Percent inhibition of proliferation MCF-7
Description: as §5, with “Plates” for “To determine inhibition at 100 nM or 1 mM, 96-well plates were seeded the afternoon before treatment. Plates”
as §6

[4] = Homo sapiens, K562, 72 h, read-out: IC50 (proliferation inhibition) Cell line - K562
[5] = Homo sapiens, K562, Table 18, read-out: Inhibition of proliferation of K562 cell lines (CML)

Chain of FGFR1 (P11362 22-822): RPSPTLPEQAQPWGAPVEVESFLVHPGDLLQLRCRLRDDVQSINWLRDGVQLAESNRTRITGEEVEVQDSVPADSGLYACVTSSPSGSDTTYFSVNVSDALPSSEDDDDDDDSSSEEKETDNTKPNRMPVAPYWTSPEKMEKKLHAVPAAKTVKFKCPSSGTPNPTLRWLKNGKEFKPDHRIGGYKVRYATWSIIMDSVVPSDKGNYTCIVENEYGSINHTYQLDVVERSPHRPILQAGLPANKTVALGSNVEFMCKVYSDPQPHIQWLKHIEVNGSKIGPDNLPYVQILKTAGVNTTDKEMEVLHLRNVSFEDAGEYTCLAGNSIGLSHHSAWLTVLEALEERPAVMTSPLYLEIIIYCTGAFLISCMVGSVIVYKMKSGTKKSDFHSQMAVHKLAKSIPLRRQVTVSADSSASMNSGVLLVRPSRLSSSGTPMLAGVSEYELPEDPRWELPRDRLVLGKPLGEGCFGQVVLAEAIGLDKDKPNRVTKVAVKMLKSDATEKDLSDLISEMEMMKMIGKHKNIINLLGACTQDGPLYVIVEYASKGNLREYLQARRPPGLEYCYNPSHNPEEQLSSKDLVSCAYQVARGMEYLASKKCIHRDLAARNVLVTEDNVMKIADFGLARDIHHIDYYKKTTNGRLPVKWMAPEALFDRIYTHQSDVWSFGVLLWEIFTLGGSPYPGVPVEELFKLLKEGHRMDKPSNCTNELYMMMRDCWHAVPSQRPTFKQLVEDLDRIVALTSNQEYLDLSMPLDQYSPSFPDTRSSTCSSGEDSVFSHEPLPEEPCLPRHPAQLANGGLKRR
Chain of c-kit (P10721 26-976): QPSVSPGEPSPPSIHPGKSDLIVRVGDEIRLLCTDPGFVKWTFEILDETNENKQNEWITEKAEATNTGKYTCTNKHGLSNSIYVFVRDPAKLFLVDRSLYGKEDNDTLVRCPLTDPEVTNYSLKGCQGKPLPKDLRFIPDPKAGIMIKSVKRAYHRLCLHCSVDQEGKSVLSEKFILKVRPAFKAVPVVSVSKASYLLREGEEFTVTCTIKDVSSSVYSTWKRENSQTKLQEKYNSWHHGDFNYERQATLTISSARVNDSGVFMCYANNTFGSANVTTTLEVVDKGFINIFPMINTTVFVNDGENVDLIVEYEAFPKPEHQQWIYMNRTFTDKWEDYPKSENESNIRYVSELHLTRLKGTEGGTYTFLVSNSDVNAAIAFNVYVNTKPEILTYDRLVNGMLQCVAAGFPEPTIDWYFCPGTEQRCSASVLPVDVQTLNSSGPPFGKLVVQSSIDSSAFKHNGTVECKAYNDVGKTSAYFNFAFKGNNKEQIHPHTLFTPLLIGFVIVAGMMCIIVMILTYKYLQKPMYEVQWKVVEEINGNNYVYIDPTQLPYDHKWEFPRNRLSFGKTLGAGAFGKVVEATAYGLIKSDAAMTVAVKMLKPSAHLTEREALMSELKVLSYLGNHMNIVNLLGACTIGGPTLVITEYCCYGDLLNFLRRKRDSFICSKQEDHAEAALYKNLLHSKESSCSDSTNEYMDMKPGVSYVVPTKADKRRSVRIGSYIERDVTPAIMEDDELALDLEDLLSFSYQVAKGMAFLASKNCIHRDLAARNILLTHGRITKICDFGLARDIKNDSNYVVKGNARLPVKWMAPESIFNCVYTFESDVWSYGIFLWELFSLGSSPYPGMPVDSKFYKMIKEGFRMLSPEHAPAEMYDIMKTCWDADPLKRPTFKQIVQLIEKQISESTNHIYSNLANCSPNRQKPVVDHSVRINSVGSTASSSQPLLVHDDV
Chain of c-Src (P12931 whole entry, looked up): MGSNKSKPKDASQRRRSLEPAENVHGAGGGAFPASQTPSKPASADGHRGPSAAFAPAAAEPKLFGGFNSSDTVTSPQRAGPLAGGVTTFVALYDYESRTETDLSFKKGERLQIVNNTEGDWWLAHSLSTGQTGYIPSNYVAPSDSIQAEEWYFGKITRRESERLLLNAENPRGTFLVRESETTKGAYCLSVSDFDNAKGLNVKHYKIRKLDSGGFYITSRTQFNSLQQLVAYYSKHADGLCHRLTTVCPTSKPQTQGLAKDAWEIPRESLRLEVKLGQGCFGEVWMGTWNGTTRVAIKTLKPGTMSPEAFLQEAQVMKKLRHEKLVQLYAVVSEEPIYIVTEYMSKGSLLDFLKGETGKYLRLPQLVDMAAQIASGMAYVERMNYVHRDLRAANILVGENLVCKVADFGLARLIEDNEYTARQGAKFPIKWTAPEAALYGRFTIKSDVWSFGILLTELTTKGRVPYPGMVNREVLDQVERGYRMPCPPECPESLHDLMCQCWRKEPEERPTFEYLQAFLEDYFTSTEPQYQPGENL
Chain of FLT3 (P36888 27-993): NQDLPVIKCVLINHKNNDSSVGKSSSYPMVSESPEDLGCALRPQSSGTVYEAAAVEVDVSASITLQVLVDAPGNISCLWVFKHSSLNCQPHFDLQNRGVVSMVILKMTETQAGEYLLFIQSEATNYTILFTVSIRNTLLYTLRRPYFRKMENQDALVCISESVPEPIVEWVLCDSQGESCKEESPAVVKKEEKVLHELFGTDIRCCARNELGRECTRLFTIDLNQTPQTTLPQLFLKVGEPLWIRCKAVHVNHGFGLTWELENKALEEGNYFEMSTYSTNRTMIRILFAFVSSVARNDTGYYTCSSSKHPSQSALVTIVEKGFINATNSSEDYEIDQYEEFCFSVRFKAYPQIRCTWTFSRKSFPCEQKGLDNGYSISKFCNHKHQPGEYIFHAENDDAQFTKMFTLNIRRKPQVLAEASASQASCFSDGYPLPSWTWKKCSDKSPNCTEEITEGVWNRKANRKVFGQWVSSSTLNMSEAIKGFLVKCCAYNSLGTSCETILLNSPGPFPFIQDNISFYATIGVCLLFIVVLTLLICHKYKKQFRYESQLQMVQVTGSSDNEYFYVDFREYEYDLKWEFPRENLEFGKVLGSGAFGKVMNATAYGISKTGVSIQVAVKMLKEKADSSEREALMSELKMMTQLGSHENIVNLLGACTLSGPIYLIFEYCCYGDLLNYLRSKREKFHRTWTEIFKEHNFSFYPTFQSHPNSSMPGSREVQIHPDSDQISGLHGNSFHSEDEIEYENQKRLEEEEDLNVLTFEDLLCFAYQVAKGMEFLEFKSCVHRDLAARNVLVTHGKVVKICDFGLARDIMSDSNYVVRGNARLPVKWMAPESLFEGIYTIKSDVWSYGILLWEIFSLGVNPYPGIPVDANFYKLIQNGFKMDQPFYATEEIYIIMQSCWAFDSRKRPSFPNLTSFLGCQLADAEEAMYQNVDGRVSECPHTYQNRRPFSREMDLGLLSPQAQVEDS
Chain of TRKC (Q16288 32-839): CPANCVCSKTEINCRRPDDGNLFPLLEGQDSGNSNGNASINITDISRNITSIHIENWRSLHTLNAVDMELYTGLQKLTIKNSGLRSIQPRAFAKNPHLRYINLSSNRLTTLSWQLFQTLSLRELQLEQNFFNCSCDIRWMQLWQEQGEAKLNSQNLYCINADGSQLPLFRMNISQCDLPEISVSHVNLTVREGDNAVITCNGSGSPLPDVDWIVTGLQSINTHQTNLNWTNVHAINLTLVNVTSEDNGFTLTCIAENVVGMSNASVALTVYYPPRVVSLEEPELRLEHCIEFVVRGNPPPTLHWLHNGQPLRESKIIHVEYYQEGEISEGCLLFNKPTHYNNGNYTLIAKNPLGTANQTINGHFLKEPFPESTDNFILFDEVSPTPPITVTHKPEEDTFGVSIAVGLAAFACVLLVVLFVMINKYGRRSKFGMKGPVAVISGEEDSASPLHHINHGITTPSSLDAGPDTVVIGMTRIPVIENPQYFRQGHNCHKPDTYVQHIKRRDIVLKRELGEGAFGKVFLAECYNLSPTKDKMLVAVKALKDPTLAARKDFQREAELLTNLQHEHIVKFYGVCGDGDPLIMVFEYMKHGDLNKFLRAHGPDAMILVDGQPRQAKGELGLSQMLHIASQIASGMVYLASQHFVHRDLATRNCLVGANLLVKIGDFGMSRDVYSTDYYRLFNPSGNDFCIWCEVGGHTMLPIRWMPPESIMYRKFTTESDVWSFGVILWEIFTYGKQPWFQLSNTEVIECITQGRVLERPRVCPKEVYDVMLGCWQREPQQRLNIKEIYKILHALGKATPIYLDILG
Chain of FLT3 (ITD) (P36888 whole entry, looked up, change not shown): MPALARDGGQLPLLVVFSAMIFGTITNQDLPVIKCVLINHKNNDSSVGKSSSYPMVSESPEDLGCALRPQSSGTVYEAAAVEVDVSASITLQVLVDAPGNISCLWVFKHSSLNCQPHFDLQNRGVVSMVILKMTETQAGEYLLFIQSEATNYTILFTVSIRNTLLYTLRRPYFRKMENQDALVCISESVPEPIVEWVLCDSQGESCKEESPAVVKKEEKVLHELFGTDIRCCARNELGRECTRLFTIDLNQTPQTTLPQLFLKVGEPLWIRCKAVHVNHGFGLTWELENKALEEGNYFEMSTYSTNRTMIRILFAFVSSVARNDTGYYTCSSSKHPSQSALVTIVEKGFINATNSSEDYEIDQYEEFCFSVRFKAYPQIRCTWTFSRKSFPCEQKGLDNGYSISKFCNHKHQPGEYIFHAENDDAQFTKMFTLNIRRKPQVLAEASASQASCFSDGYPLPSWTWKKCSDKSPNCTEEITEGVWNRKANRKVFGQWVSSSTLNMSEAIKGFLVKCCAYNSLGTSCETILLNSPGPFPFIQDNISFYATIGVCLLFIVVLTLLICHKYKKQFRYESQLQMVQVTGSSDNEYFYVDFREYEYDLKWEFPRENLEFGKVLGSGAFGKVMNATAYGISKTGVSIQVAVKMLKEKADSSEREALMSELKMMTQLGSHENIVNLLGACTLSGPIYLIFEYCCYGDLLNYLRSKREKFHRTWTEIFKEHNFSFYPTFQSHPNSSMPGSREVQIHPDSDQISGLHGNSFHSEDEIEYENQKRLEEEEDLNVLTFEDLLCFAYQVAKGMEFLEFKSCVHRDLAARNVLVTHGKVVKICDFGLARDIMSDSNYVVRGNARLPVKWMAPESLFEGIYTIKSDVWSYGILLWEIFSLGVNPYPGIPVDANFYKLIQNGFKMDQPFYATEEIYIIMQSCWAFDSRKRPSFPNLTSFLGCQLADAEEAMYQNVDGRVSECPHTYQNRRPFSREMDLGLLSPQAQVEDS
Chain of FLT3 (ITD, F691L) (P36888 whole entry, looked up, stated change not applied): as the sequence (P36888 whole entry, looked up, change not shown) above

| IC50 (K562; [4]) | IC50 (K562; [5]) | IC50 (MV4-11 [1]; Homo sapiens, MV4-11, 72 h) | IC50 (MV4-11 [2]; Homo sapiens, MV4-11) | IC50 (MOLM14; Homo sapiens, MOLM-14) | inhibition at 0.5 µM (c-kit) | inhibition at 0.5 µM (FLT3) | inhibition at 0.5 µM (FGFR1) | inhibition at 0.5 µM (c-Src) | SMILES | inhibition of MV4-11 proliferation in words (MV4-11 [3]) | also measured |
| --- | --- | --- | --- | --- | --- | --- | --- | --- | --- | --- | --- |
| 2 nM | 2.4 ± 0.06 nM | 3 nM | 3.09 ± 0.1 nM | 3.01 ± 0.1 nM | 78% | 93% | 100% | 100% | Cc1ccc(C(=O)Nc2ccc(CN3CCN(C)CC3)c(C(F)(F)F)c2)cc1C#Cc1c(N)ncc2ccccc12 [HSN352, 3-((3-aminoisoquinolin-4-yl)ethynyl)-4-methyl-N-(4-((4-methylpiperazin-1-yl)methyl)-3-(trifluoromethyl)phenyl)benzamide] | – | – |
| – | – | – | – | – | – | – | – | – | CCN(CC)CC(O)CNC(=O)c1ccc(C#Cc2c(N)ncc3ccc(Cl)cc23)cc1 (stereo not shown) [Compound A16] | potent | – |
| – | – | – | – | – | – | – | – | – | Nc1ncc2ccc(Cl)cc2c1C#Cc1ccc(C(=O)NCCCN2CCCCC2)cc1 [Compound A10] | potent | – |
| 5 nM | 5.2 ± 0.02 nM | 3 nM | 3.45 ± 0.04 nM | 1.97 ± 0.1 nM | 82% | 94% | 93% | 98% | Cc1ccc(C(=O)Nc2ccc(CN3CCN(C)CC3)c(C(F)(F)F)c2)cc1C#Cc1c(N)ncc2c(Cl)cccc12 [HSN353, 3-((3-amino-8-chloroisoquinolin-4-yl)ethynyl)-4-methyl-N-(4-((4-methylpiperazin-1-yl)methyl)-3-(trifluoromethyl)phenyl)benzamide] | – | – |
| – | – | – | – | – | – | – | – | – | Cc1ncc(C(=O)Nc2ccc(CN3CCN(C)CC3)c(C(F)(F)F)c2)cc1C#Cc1cnc(N)c2ncccc12 [HSN459, 5-((8-amino-1,7-naphthyridin-5-yl)ethynyl)-6-methyl-N-(4-((4-methylpiperazin-1-yl)methyl)-3-(trifluoromethyl)phenyl)nicotinamide] | – | Kd (FLT3 (ITD)): 5.6 nM; IC50 (NCI H1703 (NSCLC)): 38 nM; Kd (FLT3 (ITD, F691L)): 17 nM |
| 25 nM | 25.7 ± 0.31 nM | 154 nM | 154 ± 7.1 nM | 129 ± 8.2 nM | 86% | 74% | 6% | 3% | CCN(CC)CCNC(=O)c1ccc(C)c(C#Cc2c(N)ncc3ccc(Cl)cc23)c1 [HSN247] | – | inhibition at 1 µM (MV-4-11): 58%; proliferation inhibition in words, MV4-11 / AML (MV4-11 [2]): only moderate inhibitors; inhibition at 1 µM (HCT116): 54%; % inhibition of FLT3 activity (FLT3): 75%; inhibition at 0.5 µM (RET): 3%; inhibition at 0.5 µM (TRKC): 77%; inhibition at 1 µM (HeLa): 100%; inhibition at 1 µM (MCF-7): 100% |
| 7 nM | 7 ± 0.1 nM | 225 nM | 181 ± 6.5 nM | 180 ± 7.8 nM | 93% | 73% | 9% | 23% | Cc1ccc(C(=O)NCCN2CCCCC2)cc1C#Cc1c(N)ncc2ccc(Cl)cc12 [HSN248] | – | inhibition at 1 µM (MV-4-11): 98%; proliferation inhibition in words, MV4-11 / AML (MV4-11 [2]): only moderate inhibitors; inhibition at 1 µM (HCT116): 76%; inhibition at 0.5 µM (RET): 52%; inhibition at 0.5 µM (TRKC): 83%; inhibition at 1 µM (HeLa): 100%; inhibition at 1 µM (MCF-7): 100% |
| 759 nM | 913 ± 0.1 nM | 759 nM | – | – | – | – | – | – | Cc1ccc(C(=O)NCc2ccc(OCCN(C)C)cc2)cc1C#Cc1cc(N)nc2ccccc12 [HSN316, 3-((2-aminoquinolin-4-yl)ethynyl)-N-(4-(2-(dimethylamino)ethoxy)benzyl)-4-methylbenzamide] | – | – |
| – | – | – | – | – | – | – | – | – | Cc1ccc2cnc(N)c(C#Cc3cc(C(=O)Nc4ccc(CN5CCN(C)CC5)c(C(F)(F)F)c4)ccc3C)c2c1 [HSN379, 3-((3-amino-6-methylisoquinolin-4-yl)ethynyl)-4-methyl-N-(4-((4-methylpiperazin-1-yl)methyl)-3-(trifluoromethyl)phenyl)benzamide] | – | IC50 (NCI H1703 (NSCLC)): 13 nM |
| – | – | – | – | – | – | – | – | – | COCCCNC(=O)c1ccc(C#Cc2c(N)ncc3ccc(Cl)cc23)cc1 [Compound A25] | inactive | – |
| – | – | – | – | – | – | – | – | – | CN(C)CC(O)CNC(=O)c1ccc(C#Cc2c(N)ncc3ccc(Cl)cc23)cc1 (stereo not shown) [Compound A15] | potent | – |
| – | – | – | – | – | – | – | – | – | Cc1ccc(C(=O)NCc2ccc(OCCN(C)C)cc2)cc1C#Cc1c(N)ncc2ccc(Cl)cc12 [HSN315] | – | Percent inhibition of proliferation MV-4-11 (MV-4-11): 83%; IC50 (K562; 72 h, read-out: IC50 (proliferation inhibition) Cell line - K562): 203 nM; IC50 (K562; Table 18, read-out: Inhibition of proliferation of K562 cell lines (CML)): 203 ± 0.1 nM; IC50 (MV4-11 [1]; 72 h): 540 nM; IC50 (MV4-11 [2]): 549 ± 7.4 nM; proliferation inhibition in words, MV4-11 / AML (MV4-11 [2]): only moderate inhibitors; IC50 (MOLM14): 523 ± 6.4 nM; Percent inhibition of proliferation HCT116 (HCT116): 66%; % inhibition of FLT3 activity (FLT3): 32%; Percent inhibition of proliferation HeLa (HeLa): 100%; Percent inhibition of proliferation MCF-7 (MCF-7): 100% |
